# What was measured:
# Mycobacterium terrae = assay: AOAC tuberculocidal test, kill time; type: cell-based
# Excerpt: These standards are based on the known or possible risk of contamination of a particular medical device by a particular micro-organism, the pathogenic nature of the organism and other principles in infection control. […] The test panels and criteria are different for “low”, “intermediate” or “high-level disinfection”. These terms are herein used in accordance with current Food and Drug Administration (“FDA”) criteria for levels of disinfection which are detailed in Premarket Notification [510(k)] Submissions for Liquid Chemical Sterilants and High Level Disinfectants FDA 1997: “A germicide that inactivates all microbial pathogens except large number of bacterial endospores when used according to labelling”. In brief, the FDA regulatory requirement for high level disinfectants includes as the most challenging test a 100% kill of Mycobacterium tuberculosis var. bovis (or a specific strain of a suitable surrogate, such as Mycobacterium terrae) in 400 p.p.m. hard water in the presence of 2% horse serum in a quantitative tuberculocidal test.
# In the following tables unless otherwise specified references to “kill time” mean the time required to achieve complete kill as defined in the relevant AOAC test (more particularly identified in annexure 1). “No kill” means less than 2 log reduction from the initial population. Unless otherwise specified “QUAT” is benzalkonium chloride, specifically Gardiquat NC-50 (Albright & Wilson). Test points for vegetative bacteria (M. terrae) were 2, 5, 10, 20 and 60 mins. Test points for spores were 0.5, 1, 2, 4, 16, 24, 48 hours. The last column in each table indicates whether the tested combination satisfies the FDA requirement for high level disinfection (“HLD”) or fails to do so (“F”).
# AOAC tests for determination of High level Disinfection as defined in current FDA criteria (detailed in “Premarket Notification [510(k)] Submissions for Liquid Chemical Sterilants and High Level Disinfectants FDA 1993”.):
# AOAC Tuberculocidal Activity of Disinfectants
# AOAC Ref No 965.12, AOAC Official Methods of Analysis (1995)
# C. sporogens spores = assay: AOAC sporicidal test, kill time; type: cell-based; conditions: for C. sporogens (no kill): 48 hrs
# [1] = Table 3 Prior art, 0.25% QUAT, 25° C.
# [2] = Table 6 unnumbered test, 2% QUAT + 0.2% Protease (Savinase 16 L), 25° C. + 1% borax
# [3] = test 3.4, 0.25% QUAT, 62° C. + ultrasound
# [4] = test 4.1, 2% QUAT, 25° C. + 1% borax
# [5] = test 4.2, 5% QUAT, 25° C. + 1% borax
# [6] = test 4.3, 1% QUAT, 40° C. + 1% borax
# [7] = test 4.4, 2% QUAT, 40° C. + 1% borax
# [8] = test 4.5, 5% QUAT, 40° C. + 1% borax
# [9] = test 4.6, 2% QUAT, 50° C. + 1% borax
# [10] = test 4.7, 5% QUAT, 50° C. + 1% borax
# [11] = test 5.1, 1% QUAT, 40° C. + ultrasound 10 min each hour
# [12] = test 5.2, 2% QUAT, 40° C. + ultrasound 10 min each hour
# [13] = test 5.3, 5% QUAT, 40° C. + ultrasound 10 min each hour
# [14] = test 5.4, 1% QUAT, 40° C. + ultrasound 10 min each hour
# [15] = test 5.5, 2% QUAT + 1% borax, 40° C. + ultrasound 10 min each hour
# [16] = test 5.6, 5% QUAT + 1% borax, 40° C. + ultrasound 10 min each hour
# [17] = test 5.7, 2% QUAT + 1% borax + Protease, 40° C. + ultrasound 10 min each hour
# [18] = test 6.1, 2% QUAT + 0.2% Protease (Savinase 16 L), 25° C.
# [19] = test 6.2, 2% QUAT + 0.2% Protease (Savinase 16 L), 40° C.
# [20] = test 6.3, 2% QUAT + 0.2% Protease (Savinase 16 L), 40° C. + 1% borax
# [21] = test 6.4, 2% QUAT + 0.2% Protease (Savinase 16 L), 50° C.
# [22] = test 6.5, 2% QUAT + 0.2% Protease (Savinase 16 L), 50° C. + 1% borax
# [23] = test 6.6, 2% QUAT + 0.2% Protease (Savinase 16 L), 40° C. + ultrasound 10 min each hour + 1% borax
# [24] = test 6.7, 2% QUAT + 1% borax + Protease, 40° C. + ultrasound 10 min each hour
substance,measurement,setting,value
benzalkonium chloride [QUAT],Kill Time M. terrae,Mycobacterium terrae; [1],>60 min
same,Kill Time M. terrae,Mycobacterium terrae; [2],>60 min
same,kill time of Mycobacterium terrae,"Mycobacterium terrae; above 1% w/w of quat, 40° C.",less than 5 mins
same,Kill Time Mycobacterium terrae,"Mycobacterium terrae; test 1.1, 0.025% QUAT, 25° C.",>60 min
same,Kill Time Mycobacterium terrae,"Mycobacterium terrae; test 1.2, 0.25% QUAT, 25° C.",>60 min
same,Kill Time Mycobacterium terrae,"Mycobacterium terrae; test 2.1, 5% QUAT, 30° C.",<5 min
same,Kill Time Mycobacterium terrae,"Mycobacterium terrae; test 2.2, 1.0% QUAT, 40° C.",<5 min
same,Kill Time Mycobacterium terrae,"Mycobacterium terrae; test 2.3, 2.0% QUAT, 40° C.",<5 min
same,Kill Time Mycobacterium terrae,"Mycobacterium terrae; test 2.4, 5.0% QUAT, 40° C.",<5 min
same,Kill Time Mycobacterium terrae,"Mycobacterium terrae; test 2.5, 1.0% QUAT, 50° C.",<5 min
same,Kill Time Mycobacterium terrae,"Mycobacterium terrae; test 2.6, 2.0% QUAT, 50° C.",<5 min
same,Kill Time Mycobacterium terrae,"Mycobacterium terrae; test 2.7, 5.0% QUAT, 50° C.",<5 min
same,Kill Time Mycobacterium terrae,"Mycobacterium terrae; test 2.8, 1.0% QUAT, 80° C.",<5 min
same,Kill Time M. terrae,"Mycobacterium terrae; test 3.1, 0.25% QUAT, 40° C.",>60 min
same,Kill Time M. terrae,"Mycobacterium terrae; test 3.2, 0.25% QUAT, 50° C.",>60 min
same,Kill Time M. terrae,"Mycobacterium terrae; test 3.3, 0.25% QUAT, 60° C.",>60 min
same,Kill Time M. terrae,Mycobacterium terrae; [3],>60 min
same,Kill Time M. terrae,"Mycobacterium terrae; test 3.5, 1.0% QUAT, 25° C.",>60 min
same,Kill Time M. terrae,"Mycobacterium terrae; test 3.6, 2.0% QUAT, 25° C.",>60 min
same,Kill Time M. terrae,"Mycobacterium terrae; test 3.7, 5.0% QUAT, 25° C.",>60 min
same,Kill Time M. terrae,"Mycobacterium terrae; test 3.8, 0.6%, 40° C.",>60 min
same,Kill Time M. terrae,"Mycobacterium terrae; test 3.9, 0.6% QUAT, 50° C.",>20 min
same,Kill Time M. terrae,Mycobacterium terrae; [4],>60 min
same,Kill Time M. terrae,Mycobacterium terrae; [5],>60 min
same,Kill Time M. terrae,Mycobacterium terrae; [6],<5 min
same,Kill Time M. terrae,Mycobacterium terrae; [7],<2 min
same,Kill Time M. terrae,Mycobacterium terrae; [8],<2 min
same,Kill Time M. terrae,Mycobacterium terrae; [9],<2 min
same,Kill Time M. terrae,Mycobacterium terrae; [10],<2 min
same,Kill Time M. terrae,Mycobacterium terrae; [11],<5 min
same,Kill Time M. terrae,Mycobacterium terrae; [12],<5 min
same,Kill Time M. terrae,Mycobacterium terrae; [13],<5 min
same,Kill Time M. terrae,Mycobacterium terrae; [14],<5 min
same,Kill Time M. terrae,Mycobacterium terrae; [15],<2 min
same,Kill Time M. terrae,Mycobacterium terrae; [16],<2 min
same,Kill Time M. terrae,Mycobacterium terrae; [17],<2 min
same,Kill Time M. terrae,Mycobacterium terrae; [18],>60 min
same,Kill Time M. terrae,Mycobacterium terrae; [19],<5 min
same,Kill Time M. terrae,Mycobacterium terrae; [20],<2 min
same,Kill Time M. terrae,Mycobacterium terrae; [21],<5 min
same,Kill Time M. terrae,Mycobacterium terrae; [22],<2 min
same,Kill Time M. terrae,Mycobacterium terrae; [23],<2 min
same,Kill Time M. terrae,Mycobacterium terrae; [24],<2 min
same,Kill Time C. sporogens,C. sporogens spores; [1],>24 h
same,Kill Time C. sporogens,C. sporogens spores; [2],>48 h
same,C. sporogens (no kill),C. sporogens spores; [2],(no kill) (“No kill” means less than 2 log reduction from the initial population)
same,kill time of C. sporogenes,"C. sporogens spores; above 1% w/w of quat, 40° C.",less than 2 hours
same,Kill Time C. sporogens,"C. sporogens spores; test 1.1, 0.025% QUAT, 25° C.",>24 h
same,Kill Time C. sporogens,"C. sporogens spores; test 1.2, 0.25% QUAT, 25° C.",>24 h
same,Kill Time C. sporogens,"C. sporogens spores; test 2.1, 5% QUAT, 30° C.",<2 h
same,Kill Time C. sporogens,"C. sporogens spores; test 2.2, 1.0% QUAT, 40° C.",<2 h
same,Kill Time C. sporogens,"C. sporogens spores; test 2.3, 2.0% QUAT, 40° C.",<2 h
same,Kill Time C. sporogens,"C. sporogens spores; test 2.4, 5.0% QUAT, 40° C.",<1 h
same,Kill Time C. sporogens,"C. sporogens spores; test 2.5, 1.0% QUAT, 50° C.",<2 h
same,Kill Time C. sporogens,"C. sporogens spores; test 2.6, 2.0% QUAT, 50° C.",<2 h
same,Kill Time C. sporogens,"C. sporogens spores; test 2.7, 5.0% QUAT, 50° C.",<1 h
same,Kill Time C. sporogens,"C. sporogens spores; test 2.7, 5.0% QUAT, 50° C., listed as quat",less than one hour
same,Kill Time C. sporogens,"C. sporogens spores; test 2.8, 1.0% QUAT, 80° C.",<1 h
same,Kill Time C. sporogens,"C. sporogens spores; test 2.8, 1.0% QUAT, 80° C., listed as quat",less than one hour
same,Kill Time C. sporogens,"C. sporogens spores; test 3.1, 0.25% QUAT, 40° C.",>24 h
same,Kill Time C. sporogens,"C. sporogens spores; test 3.2, 0.25% QUAT, 50° C.",>24 h
same,Kill Time C. sporogens,"C. sporogens spores; test 3.3, 0.25% QUAT, 60° C.",>24 h
same,Kill Time C. sporogens,C. sporogens spores; [3],>24 h
same,Kill Time C. sporogens,"C. sporogens spores; test 3.5, 1.0% QUAT, 25° C.",>48 h
same,C. sporogens (no kill),"C. sporogens spores; test 3.5, 1.0% QUAT, 25° C.",(no kill) (“No kill” means less than 2 log reduction from the initial population)
same,Kill Time C. sporogens,"C. sporogens spores; test 3.6, 2.0% QUAT, 25° C.",>48 h
same,C. sporogens (no kill),"C. sporogens spores; test 3.6, 2.0% QUAT, 25° C.",(no kill) (“No kill” means less than 2 log reduction from the initial population)
same,Kill Time C. sporogens,"C. sporogens spores; test 3.7, 5.0% QUAT, 25° C.",>48 h
same,C. sporogens (no kill),"C. sporogens spores; test 3.7, 5.0% QUAT, 25° C.",(no kill) (“No kill” means less than 2 log reduction from the initial population)
same,Kill Time C. sporogens,"C. sporogens spores; test 3.8, 0.6%, 40° C.",>24 h
same,Kill Time C. sporogens,"C. sporogens spores; test 3.9, 0.6% QUAT, 50° C.",<16 h
same,Kill Time C. sporogens,C. sporogens spores; [4],>48 h
same,C. sporogens (no kill),C. sporogens spores; [4],(no kill) (“No kill” means less than 2 log reduction from the initial population)
same,Kill Time C. sporogens,C. sporogens spores; [5],>48 h
same,C. sporogens (no kill),C. sporogens spores; [5],(no kill) (“No kill” means less than 2 log reduction from the initial population)
same,Kill Time C. sporogens,C. sporogens spores; [6],<1 h
same,Kill Time C. sporogens,C. sporogens spores; [7],<1 h
same,Kill Time C. sporogens,C. sporogens spores; [8],<1 h
same,Kill Time C. sporogens,C. sporogens spores; [9],<1 h
same,Kill Time C. sporogens,C. sporogens spores; [10],<1 h
same,Kill Time C. sporogens,C. sporogens spores; [11],<2 h
same,Kill Time C. sporogens,C. sporogens spores; [12],<1 h
same,Kill Time C. sporogens,C. sporogens spores; [13],<1 h
same,Kill Time C. sporogens,C. sporogens spores; [14],<1 h
same,Kill Time C. sporogens,C. sporogens spores; [15],<1 h
same,Kill Time C. sporogens,C. sporogens spores; [16],<1 h
same,Kill Time C. sporogens,C. sporogens spores; [17],<1 h
same,Kill Time C. sporogens,C. sporogens spores; [18],>48 h
same,C. sporogens (no kill),C. sporogens spores; [18],(no kill) (“No kill” means less than 2 log reduction from the initial population)
same,Kill Time C. sporogens,C. sporogens spores; [19],<1 h
same,Kill Time C. sporogens,C. sporogens spores; [20],<1 h
same,Kill Time C. sporogens,C. sporogens spores; [21],<1 h
same,Kill Time C. sporogens,C. sporogens spores; [22],<1 h
same,Kill Time C. sporogens,C. sporogens spores; [23],<1 h
same,Kill Time C. sporogens,C. sporogens spores; [24],<1 h
